Assay results taken from ChEMBL document CHEMBL6096683, “Novel Orthosteric/Allosteric Ligands of Cannabinoid Receptors: An Unexpected Pharmacological Profile” (J Med Chem, 2025).
Calls of active or inactive are those of the source. The rule behind the calls is not given here.

How the values were obtained:
Cannabinoid receptor 2 [1] = biological target: T1, Cannabinoid receptor 2 (Homo sapiens, UniProt P34972); experiment: Agonist activity at human CB2 receptor expressed in CHO cells assessed as inhibition of forskolin-induced cAMP production incubated for 90 mins in presence of CP55940 ligand by HitHunter assay; format: functional, cell-based
Cannabinoid receptor 2 [2] = biological target: T1, Cannabinoid receptor 2; experiment: Agonist activity at human CB2 receptor expressed in CHO cells assessed as inhibition of forskolin-induced cAMP production incubated for 90 mins in presence of FM6b ligand by HitHunter assay; format: functional, cell-based
Cannabinoid receptor 1 [3] = biological target: T2, Cannabinoid receptor 1 (Homo sapiens, UniProt P21554); experiment: Agonist activity at human CB1 receptor expressed in CHO cells assessed as inhibition of forskolin-induced cAMP production at 100 nM incubated for 90 mins in presence of FM6b ligand by HitHunter assay relative to control; format: functional, cell-based; details: filed as agonist
Cannabinoid receptor 1 [4] = biological target: T2, Cannabinoid receptor 1; experiment: Agonist activity at human CB1 receptor expressed in CHO cells assessed as inhibition of forskolin-induced cAMP production incubated for 90 mins in presence of GAT211 ligand by HitHunter assay; format: functional, cell-based
Cannabinoid receptor 1 [5] = biological target: T2, Cannabinoid receptor 1; experiment: Agonist activity at human CB1 receptor expressed in CHO cells assessed as inhibition of forskolin-induced cAMP production at 100 nM incubated for 90 mins in presence of CP55940 ligand by HitHunter assay relative to control; format: functional, cell-based; details: filed as agonist
Cannabinoid receptor 2 [6] = biological target: T1, Cannabinoid receptor 2; experiment: Agonist activity at human CB2 receptor expressed in CHO cells assessed as inhibition of forskolin-induced cAMP production at 100 nM incubated for 90 mins in presence of FM6b ligand by HitHunter assay relative to control; format: functional, cell-based; details: filed as agonist
Cannabinoid receptor 1 [7] = biological target: T2, Cannabinoid receptor 1; experiment: Agonist activity at human CB1 receptor expressed in CHO cells assessed as inhibition of forskolin-induced cAMP production incubated for 90 mins in presence of FM6b ligand by HitHunter assay; format: functional, cell-based
Cannabinoid receptor 2 [8] = biological target: T1, Cannabinoid receptor 2; experiment: Agonist activity at human CB2 receptor expressed in CHO cells assessed as inhibition of forskolin-induced cAMP production at 100 nM incubated for 90 mins in presence of CP55940 ligand by HitHunter assay relative to control; format: functional, cell-based; details: filed as agonist
Cannabinoid receptor 1 [9] = biological target: T2, Cannabinoid receptor 1; experiment: Agonist activity at human CB1 receptor expressed in CHO cells assessed as inhibition of forskolin-induced cAMP production at 100 nM incubated for 90 mins in presence of GAT211 ligand by HitHunter assay relative to control; format: functional, cell-based
Cannabinoid receptor 1 [10] = biological target: T2, Cannabinoid receptor 1; experiment: Displacement of [3H]CP55940 from human CB1 receptor expressed in CHO cell membrane incubated for 2 hrs; format: cell membranes
Cannabinoid receptor 2 [11] = biological target: T1, Cannabinoid receptor 2; experiment: Displacement of [3H]CP55940 from human CB2 receptor expressed in CHO cell membrane at 0.001 to 10 uM incubated for 2 hrs relative to control; format: cell membranes; details: dose 0.001-10 µM
Cannabinoid receptor 2 [12] = biological target: T1, Cannabinoid receptor 2; experiment: Agonist activity at human CB2 receptor expressed in CHO cells assessed as inhibition of forskolin-induced cAMP production at 10 uM incubated for 90 mins by HitHunter assay; format: functional, cell-based; details: filed as agonist
Cannabinoid receptor 2 [13] = biological target: T1, Cannabinoid receptor 2; experiment: Displacement of [3H]CP55940 from human CB2 receptor expressed in CHO cell membrane incubated for 2 hrs; format: cell membranes
Cannabinoid receptor 1 [14] = biological target: T2, Cannabinoid receptor 1; experiment: Agonist activity at human CB1 receptor expressed in CHO cells assessed as inhibition of forskolin-induced cAMP production incubated for 90 mins in presence of CP55940 ligand by HitHunter assay; format: functional, cell-based
Cannabinoid receptor 1 [15] = biological target: T2, Cannabinoid receptor 1; experiment: Displacement of [3H]CP55940 from human CB1 receptor expressed in CHO cell membrane at 0.001 to 10 uM incubated for 2 hrs relative to control; format: cell membranes; details: dose 0.001-10 µM
HepG2 [16] = experiment: Anti-steatosis activity against oleate/palmitate-induced human HepG2 cells assessed as induction of lipolysis at 0.1 to 25 uM incubated for 24 hrs; format: functional, cell-based; details: dose 0.1-25 µM
BEND3 [17] = experiment: Disruption of monolayer integrity in mouse BEND3 cells assessed as change in TEER modulation after 3 hrs; format: functional, cell-based
HepG2 [18] = experiment: Cytotoxicity against human HepG2 cells at 0.1 to 100 uM incubated for 24 hrs by MTT assay; format: functional, cell-based; details: dose 0.1-100 µM
HepG2 [19] = experiment: Anti-steatosis activity against oleate/palmitate-induced human HepG2 cells assessed as reduction of lipid accumulation incubated for 24 hrs; format: functional, cell-based; details: dose 0.1-25 µM
BEND3 [20] = experiment: Disruption of monolayer integrity in mouse BEND3 cells assessed as change in TEER modulation at 180 mins; format: functional, cell-based
HepG2 [21] = experiment: Induction of lipid accumulation in human HepG2 cells assessed as increase in lipolysis at 0.1 to 25 uM incubated for 24 hrs by Oil Red O staining based analysis; format: functional, cell-based; details: dose 0.1-25 µM
BEND3 [22] = experiment: Disruption of monolayer integrity in mouse BEND3 cells assessed as change in TEER modulation at 135 mins; format: functional, cell-based
Cannabinoid receptor 1 [23] = biological target: T2, Cannabinoid receptor 1; experiment: Agonist activity at human CB1 receptor expressed in CHO cells assessed as inhibition of forskolin-induced cAMP production at 1 nM incubated for 90 mins in presence of CP55940 ligand by HitHunter assay relative to control; format: functional, cell-based; details: filed as agonist
HepG2 [24] = experiment: Induction of lipid accumulation in human HepG2 cells at 0.1 to 25 uM incubated for 24 hrs by Oil Red O staining based analysis; format: functional, cell-based; details: dose 0.1-25 µM
[25] = Cytotoxicity against mouse BEND3 cells assessed as cell viability at 30 uM incubated for 24 hrs by WST-1 assay; format: functional; details: read-out: Activity
Cannabinoid receptor 2 [26] = biological target: T1, Cannabinoid receptor 2; experiment: Agonist activity at human CB2 receptor expressed in CHO cells assessed as inhibition of forskolin-induced cAMP production at 1.8 nM incubated for 90 mins by HitHunter assay relative to control; format: functional, cell-based; set-up: scale not given: the % may be the effect or the level left; details: filed as agonist
Cannabinoid receptor 2 [27] = biological target: T1, Cannabinoid receptor 2; experiment: Displacement of [3H]CP55940 from human CB2 receptor; details: filed as agonist
HepG2 [28] = experiment: Anti-steatosis activity against oleate/palmitate-induced human HepG2 cells assessed as induction of lipolysis at 25 uM incubated for 24 hrs; format: functional, cell-based
Cannabinoid receptor 1 [29] = biological target: T2, Cannabinoid receptor 1; experiment: Displacement of [3H]CP55940 from human CB1 receptor; details: filed as agonist

T1 sequence (P34972 whole entry): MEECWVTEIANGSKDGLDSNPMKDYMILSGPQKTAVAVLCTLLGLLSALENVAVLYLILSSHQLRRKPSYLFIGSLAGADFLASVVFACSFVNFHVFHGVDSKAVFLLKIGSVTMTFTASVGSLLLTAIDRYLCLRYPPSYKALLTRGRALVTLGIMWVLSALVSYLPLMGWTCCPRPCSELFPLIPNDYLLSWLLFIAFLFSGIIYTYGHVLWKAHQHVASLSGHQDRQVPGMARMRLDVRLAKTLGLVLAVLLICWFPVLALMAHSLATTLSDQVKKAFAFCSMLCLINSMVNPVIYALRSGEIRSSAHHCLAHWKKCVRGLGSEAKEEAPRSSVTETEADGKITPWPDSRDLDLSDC
T2 sequence (P21554 whole entry): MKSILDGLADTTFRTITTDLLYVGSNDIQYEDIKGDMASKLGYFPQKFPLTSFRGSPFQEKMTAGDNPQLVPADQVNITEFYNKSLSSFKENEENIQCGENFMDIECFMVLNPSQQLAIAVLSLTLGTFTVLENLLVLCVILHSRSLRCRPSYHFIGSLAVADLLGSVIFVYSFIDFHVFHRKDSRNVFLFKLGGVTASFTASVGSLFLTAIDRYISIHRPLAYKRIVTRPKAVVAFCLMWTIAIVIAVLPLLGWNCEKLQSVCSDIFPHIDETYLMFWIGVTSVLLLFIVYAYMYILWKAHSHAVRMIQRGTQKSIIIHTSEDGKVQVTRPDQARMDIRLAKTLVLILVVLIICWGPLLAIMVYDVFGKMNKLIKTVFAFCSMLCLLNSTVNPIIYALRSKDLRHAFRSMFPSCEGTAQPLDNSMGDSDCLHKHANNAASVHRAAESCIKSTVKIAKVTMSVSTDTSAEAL

SMILES	Emax (Cannabinoid receptor 1 [3])	EC50 (Cannabinoid receptor 1 [4])	Emax (Cannabinoid receptor 1 [5])	EC50 (Cannabinoid receptor 1 [7])	Emax (Cannabinoid receptor 1 [9])	IC50 (Cannabinoid receptor 1 [10])	Emax (Cannabinoid receptor 2 [11]; filed as agonist)	Activity (Cannabinoid receptor 2 [12])	EC50 (Cannabinoid receptor 1 [14])	Emax (Cannabinoid receptor 1 [15])	Activity (BEND3 [20])	Activity (BEND3 [22])	IC50 (Cannabinoid receptor 2 [13]; read-out: pIC50 (converted))	other results
Cc1c(Br)cc(C(=O)NC2CCCCCC2)c(=O)n1CCCn1cc(CCCC(=O)NCC(c2ccccc2)c2c(-c3ccccc3)[nH]c3ccccc23)nn1 (stereo not given)	120%	0.0158 µM	79%	0.631 µM	0.335%	0.0251 µM	160%	Active	0.0251 µM	31%	–	–	–	EC50 (Cannabinoid receptor 2 [1]): 0.00794 µM; EC50 (Cannabinoid receptor 2 [2]): 0.398 µM; Emax (Cannabinoid receptor 2 [6]): 73%; Emax (Cannabinoid receptor 2 [8]): 104%; IC50 (Cannabinoid receptor 2 [13]; read-out: IC50): 0.1 µM
Cc1c(Br)cc(C(=O)NC2CCCCCC2)c(=O)n1CCCCCn1cc(CCCCC(=O)NCC(c2ccccc2)c2c(-c3ccccc3)[nH]c3ccccc23)nn1 (stereo not given)	83%	0.126 µM	–	0.00631 µM	35%	0.126 µM	201%	Active	1.58 µM	31%	Active	Active	1 µM	Activity (HepG2 [16]): Active; Activity (BEND3 [17]): Active; Activity (HepG2 [18]): Active; Activity (HepG2 [19]): Dose-dependent-effect; Activity (HepG2 [21]): Active; Emax (Cannabinoid receptor 1 [23]): 98%; Activity (HepG2 [24]): Active; viability at 30 µM [25]: > 75%
Cc1c(Br)cc(C(=O)NC2CCCCCC2)c(=O)n1CCCCCn1cc(CCC(=O)NCC(c2ccccc2)c2c(-c3ccccc3)[nH]c3ccccc23)nn1 (stereo not given)	120%	0.0631 µM	58%	2 µM	1.3%	0.02 µM	80%	Active	0.02 µM	–	–	–	–	Emax (Cannabinoid receptor 1 [15]; filed as agonist): 42%
Cc1c(Br)cc(C(=O)NC2CCCCCC2)c(=O)n1Cc1ccc(F)cc1	–	–	–	–	–	0.000794 µM	–	–	–	29%	–	–	0.00631 µM	Activity (Cannabinoid receptor 2 [26]): 104%; Activity (Cannabinoid receptor 2 [27]): Active; Activity (HepG2 [28]): inactive; Activity (Cannabinoid receptor 1 [29]): Active; Emax (Cannabinoid receptor 2 [11]): 13%
O=C1OC2(c3ccc(O)cc3Oc3cc(O)ccc32)c2ccccc21	–	–	–	–	–	–	–	–	–	–	Active	Active	–	–
